Results as given in US9302988B2, “Fluoromethyl-substituted pyrrole carboxamides” (GRÜNENTHAL GMBH, priority 2012, dated 2016).

What follows are molecules tested against T1, Human CaV2.2 channels (Homo sapiens, UniProt Q00975) (assay: Fluorescent assay for CaV2.2 channels using potassium depolarization to induce channel opening (FLIPR, Fluo-4)). Settings: 3 μM test compound, 30 mM KCl, HEK293 cells stably expressing human CaV2.2; read-out: %-Inhib (CaV2.2) @3 μM @30 mM KCl.
T1 construct: expressed in transfected cells
T1 sequence (Q00975 whole entry): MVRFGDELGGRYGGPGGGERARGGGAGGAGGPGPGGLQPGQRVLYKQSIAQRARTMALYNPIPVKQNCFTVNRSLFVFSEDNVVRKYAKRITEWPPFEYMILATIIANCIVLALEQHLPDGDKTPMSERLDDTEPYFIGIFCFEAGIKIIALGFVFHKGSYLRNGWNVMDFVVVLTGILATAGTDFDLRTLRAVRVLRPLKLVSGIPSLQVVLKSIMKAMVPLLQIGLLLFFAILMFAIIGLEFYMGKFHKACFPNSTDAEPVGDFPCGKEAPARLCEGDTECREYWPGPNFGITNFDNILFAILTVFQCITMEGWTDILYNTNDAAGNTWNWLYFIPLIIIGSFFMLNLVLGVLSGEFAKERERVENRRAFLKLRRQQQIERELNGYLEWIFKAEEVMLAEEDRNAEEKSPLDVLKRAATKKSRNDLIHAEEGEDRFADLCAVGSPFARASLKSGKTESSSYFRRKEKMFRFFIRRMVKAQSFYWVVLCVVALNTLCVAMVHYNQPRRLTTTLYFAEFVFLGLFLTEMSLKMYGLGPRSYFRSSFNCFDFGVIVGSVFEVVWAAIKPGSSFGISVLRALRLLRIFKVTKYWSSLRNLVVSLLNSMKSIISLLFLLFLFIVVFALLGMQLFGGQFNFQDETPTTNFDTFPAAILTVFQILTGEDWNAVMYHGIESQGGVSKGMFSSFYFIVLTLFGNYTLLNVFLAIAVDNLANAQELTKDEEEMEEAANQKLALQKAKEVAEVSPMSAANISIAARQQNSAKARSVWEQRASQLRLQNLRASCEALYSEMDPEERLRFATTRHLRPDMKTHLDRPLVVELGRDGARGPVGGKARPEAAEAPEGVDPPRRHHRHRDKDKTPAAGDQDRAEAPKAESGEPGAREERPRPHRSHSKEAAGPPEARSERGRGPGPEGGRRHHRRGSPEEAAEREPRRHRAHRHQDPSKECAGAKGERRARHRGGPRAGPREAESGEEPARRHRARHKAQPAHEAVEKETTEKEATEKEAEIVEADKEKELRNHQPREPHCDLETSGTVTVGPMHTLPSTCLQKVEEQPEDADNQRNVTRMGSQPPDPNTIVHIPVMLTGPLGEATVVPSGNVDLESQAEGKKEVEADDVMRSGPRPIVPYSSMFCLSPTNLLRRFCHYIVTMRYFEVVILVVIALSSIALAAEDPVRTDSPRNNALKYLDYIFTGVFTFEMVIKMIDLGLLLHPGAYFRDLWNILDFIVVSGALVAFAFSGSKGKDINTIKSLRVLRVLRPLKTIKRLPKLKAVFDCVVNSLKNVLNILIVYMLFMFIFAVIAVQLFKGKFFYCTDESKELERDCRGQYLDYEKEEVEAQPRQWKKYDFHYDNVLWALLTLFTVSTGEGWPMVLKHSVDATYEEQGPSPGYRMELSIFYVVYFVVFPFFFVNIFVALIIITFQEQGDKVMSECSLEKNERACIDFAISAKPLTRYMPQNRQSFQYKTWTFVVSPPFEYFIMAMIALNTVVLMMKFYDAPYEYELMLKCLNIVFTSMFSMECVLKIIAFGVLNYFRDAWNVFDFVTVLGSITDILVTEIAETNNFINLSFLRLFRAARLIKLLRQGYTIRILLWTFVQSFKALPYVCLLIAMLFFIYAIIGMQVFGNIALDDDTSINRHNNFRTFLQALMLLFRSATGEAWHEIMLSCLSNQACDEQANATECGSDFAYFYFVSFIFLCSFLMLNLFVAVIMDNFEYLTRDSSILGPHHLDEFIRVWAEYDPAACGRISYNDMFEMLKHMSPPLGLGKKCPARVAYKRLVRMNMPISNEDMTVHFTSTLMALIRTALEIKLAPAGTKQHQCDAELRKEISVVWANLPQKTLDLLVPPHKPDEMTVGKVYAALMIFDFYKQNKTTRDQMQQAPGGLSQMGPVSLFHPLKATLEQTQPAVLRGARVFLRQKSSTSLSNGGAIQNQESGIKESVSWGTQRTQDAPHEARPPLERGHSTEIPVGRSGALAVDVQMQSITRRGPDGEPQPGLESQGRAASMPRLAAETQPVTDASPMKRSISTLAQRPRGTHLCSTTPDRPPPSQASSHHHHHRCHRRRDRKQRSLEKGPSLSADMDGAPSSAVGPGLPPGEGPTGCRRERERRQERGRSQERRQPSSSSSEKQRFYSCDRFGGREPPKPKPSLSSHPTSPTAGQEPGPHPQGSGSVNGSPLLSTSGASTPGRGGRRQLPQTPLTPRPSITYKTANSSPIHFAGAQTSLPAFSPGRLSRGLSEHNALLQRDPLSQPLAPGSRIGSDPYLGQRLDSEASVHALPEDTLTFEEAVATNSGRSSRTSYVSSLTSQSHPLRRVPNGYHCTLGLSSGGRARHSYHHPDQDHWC
T1 sequence (P54289 25-1103, further chain): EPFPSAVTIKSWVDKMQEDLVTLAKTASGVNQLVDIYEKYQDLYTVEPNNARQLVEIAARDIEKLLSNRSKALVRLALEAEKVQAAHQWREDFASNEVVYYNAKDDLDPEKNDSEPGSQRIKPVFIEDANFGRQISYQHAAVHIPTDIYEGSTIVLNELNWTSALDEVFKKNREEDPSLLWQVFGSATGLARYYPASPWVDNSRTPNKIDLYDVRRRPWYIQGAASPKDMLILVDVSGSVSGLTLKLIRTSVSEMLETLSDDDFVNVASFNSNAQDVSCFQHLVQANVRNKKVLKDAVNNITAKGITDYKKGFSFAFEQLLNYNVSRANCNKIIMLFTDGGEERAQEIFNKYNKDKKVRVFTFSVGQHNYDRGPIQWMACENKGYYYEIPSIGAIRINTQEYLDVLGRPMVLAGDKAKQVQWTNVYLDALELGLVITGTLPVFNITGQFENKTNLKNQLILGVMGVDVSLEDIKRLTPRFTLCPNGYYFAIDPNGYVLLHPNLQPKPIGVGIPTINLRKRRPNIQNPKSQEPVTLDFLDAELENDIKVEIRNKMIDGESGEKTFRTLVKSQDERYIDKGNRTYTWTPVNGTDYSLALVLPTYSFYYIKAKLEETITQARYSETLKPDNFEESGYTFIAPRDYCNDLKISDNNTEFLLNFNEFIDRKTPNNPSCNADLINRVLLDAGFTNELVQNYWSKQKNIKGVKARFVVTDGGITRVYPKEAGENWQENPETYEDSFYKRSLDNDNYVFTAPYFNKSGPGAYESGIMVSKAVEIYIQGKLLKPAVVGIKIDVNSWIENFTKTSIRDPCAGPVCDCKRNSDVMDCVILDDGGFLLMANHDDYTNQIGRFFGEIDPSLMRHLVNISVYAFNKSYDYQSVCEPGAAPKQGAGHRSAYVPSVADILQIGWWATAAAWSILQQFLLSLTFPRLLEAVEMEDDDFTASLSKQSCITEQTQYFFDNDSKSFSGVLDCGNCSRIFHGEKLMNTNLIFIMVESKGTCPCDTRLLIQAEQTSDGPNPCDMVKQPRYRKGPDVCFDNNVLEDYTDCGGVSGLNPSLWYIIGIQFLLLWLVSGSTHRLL
T1 sequence (P54284 whole entry, further chain): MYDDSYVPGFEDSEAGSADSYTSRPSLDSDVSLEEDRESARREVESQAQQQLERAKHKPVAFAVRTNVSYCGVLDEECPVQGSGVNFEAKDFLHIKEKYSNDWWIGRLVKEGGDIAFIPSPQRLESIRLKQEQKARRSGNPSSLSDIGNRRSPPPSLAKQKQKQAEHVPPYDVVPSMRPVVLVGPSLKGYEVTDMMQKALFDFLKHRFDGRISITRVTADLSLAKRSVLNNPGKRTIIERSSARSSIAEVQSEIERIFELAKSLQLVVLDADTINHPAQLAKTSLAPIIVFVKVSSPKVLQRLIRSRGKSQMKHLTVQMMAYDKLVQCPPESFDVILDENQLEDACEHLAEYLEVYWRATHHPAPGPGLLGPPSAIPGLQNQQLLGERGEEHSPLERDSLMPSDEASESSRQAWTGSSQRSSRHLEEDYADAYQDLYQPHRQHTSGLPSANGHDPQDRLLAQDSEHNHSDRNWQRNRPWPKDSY
Type: cell-based
From the text: In the process, the Ca^2+ influx is quantified in the FLIPR assay with the aid of a Ca^2+-sensitive dye (type Fluo-4, Molecular Probes Europe BV, Leiden, the Netherlands) in a fluorescent imaging plate reader (FLIPR 3, Molecular Devices, Sunnyvale, USA), as described hereinafter.
2.1 Fluorescent Assay for CaV2.2 Channels Using Potassium Depolarization to Induce Channel Opening
Human CaV2.2 channels were stably expressed in HEK293 cells together with alpha2-delta and beta subunits of voltage gated calcium channels. In addition, an inwardly rectifying potassium channel (Kir2.3) was stably expressed in these cells to augment control of the cell membrane potential by the concentration of extracellular potassium ions. Raise of the extracellular potassium concentration leads to depolarization of the membrane potential and thus regulates the voltage dependent state of CaV2.2 channels. For preparation, cells were seeded in black poly-D-lysine coated 96-well plates (Becton Dickinson, Biocoat 4640) in 100 μl medium [500 ml DMEM/F-12 plus Glutamax (Invitrogen 31331-093) plus 5.5 ml MEM NEAA 100× (Invitrogen 11140-035) plus 50 ml FBS decomplemented (Invitrogen 10270-106) plus 4.4 ml Geneticin (Invitrogen 10131-027) plus 1.1 ml Hygromycin B (Invitrogen 10687-010) plus 68.75 μl Puromycin (Clontech, 631306)] at a cell density of 45.000 cells per well.
Plates were incubated at 37° C. (5% CO2) for 20 to 23 hours. On the day of experiment medium was discarded and cells were loaded with Fluo 4 by addition of 100 μl of basic assay buffer (10 mM HEPES, 30 mM KCl, 120 mM NaCl, 0.8 mM CaCl2, 1.7 mM MgCl2, 10 mM Glucose, 0.1% BSA. pH 7.4) containing 2 μM Fluo 4 (Molecular Probes; F-14201), 0.01% pluronic acid (Molecular Probes; P-6866) and 2.5 mM probenecid (Molecular Probes; P36400). Cells were incubated in the dark at 25° C. for 60 min. Then the dye containing buffer was discarded and 100 μl basic assay buffer was added. Subsequently cells were incubated in the dark at 25° C. for 15 min. 25 μl of basic assay buffer with or without test compound were added and cells were incubated again in the dark at 25° C. for 15 min. Fluorescence intensity was measured on a FLIPR 3 instrument (Molecular Devices Corp., Sunnyvale, Calif.) with excitation at 480 nm and emission at 535 nm. After continuously reading fluorescence for 30 sec, 50 μl of basic assay buffer containing 210 mM KCl (NaCl omitted) were added for depolarization. Peak fluorescent signal intensity was determined and the amplitude of the peak signal, normalized to base line, was used to measure channel inhibition by test compounds.
For O=C(c1c(-c2ccc(Cl)cc2)cc(C(F)(F)F)n1Cc1ccccc1)N1CCOCC1 [SC-01, [1-Benzyl-3-(4-chlorophenyl)-5-(trifluoromethyl)-1H-pyrrol-2-yl]-morpholin-4-yl-methanone], the inhibition at 3 µM was > 95%. CN(CC(C)(C)C)C(=O)c1c(-c2ccc(Cl)cc2)cc(C(F)(F)F)n1Cc1ccccc1 [SC-02, 1-Benzyl-3-(4-chlorophenyl)-N-(2,2-dimethyl-propyl)-N-methyl-5-(trifluoromethyl)-1H-pyrrole-2-carboxylic acid amide] showed an inhibition at 3 µM of 75 to 95%. For Cc1c(-c2ccc(Cl)cc2)c(C(=O)N2CCOCC2)n(Cc2ccccc2)c1C(F)(F)F [SC-03, [1-Benzyl-3-(4-chlorophenyl)-4-methyl-5-(trifluoromethyl)-1H-pyrrol-2-yl]-morpholin-4-yl-methanone], the inhibition at 3 µM was > 95%. With Cc1c(-c2ccc(Cl)cc2)c(C(=O)N(C)CC(C)(C)C)n(Cc2ccccc2)c1C(F)(F)F [SC-04, 1-Benzyl-3-(4-chlorophenyl)-N-(2,2-dimethyl-propyl)-N,4-dimethyl-5-(trifluoromethyl)-1 H-pyrrole-2-carboxylic acid amide] the inhibition at 3 µM was 75 to 95%. For Cc1c(-c2ccc(Cl)cc2)c(C(=O)N2CC(O)C2)n(Cc2ccccc2)c1C(F)(F)F [SC-05, [1-Benzyl-3-(4-chlorophenyl)-4-methyl-5-(trifluoromethyl)-1H-pyrrol-2-yl]-(3-hydroxy-azetidin-1-yl)-methanone], the inhibition at 3 µM was 75 to 95%. In the case of Cc1c(-c2ccc(Cl)cc2)c(C(=O)N(C)CCS(C)(=O)=O)n(Cc2ccccc2)c1C(F)(F)F [SC-06, 1-Benzyl-3-(4-chlorophenyl)-N,4-dimethyl-N-(2-methylsulfonyl-ethyl)-5-(trifluoromethyl)-1H-pyrrole-2-carboxylic acid amide], the inhibition at 3 µM is reported as > 95%. Molecule Cc1c(-c2ccc(Cl)cc2)c(C(=O)N2CCNC(=O)C2)n(Cc2ccccc2)c1C(F)(F)F [SC-08, 4-[1-Benzyl-3-(4-chlorophenyl)-4-methyl-5-(trifluoromethyl)-1H-pyrrole-2-carbonyl]-piperazin-2-one] has an inhibition at 3 µM of 75 to 95%. For Cc1c(-c2ccc(Cl)cc2)c(C(=O)N2CCN(C)C(=O)C2)n(Cc2ccccc2)c1C(F)(F)F [SC-09, 4-[1-Benzyl-3-(4-chlorophenyl)-4-methyl-5-(trifluoromethyl)-1H-pyrrole-2-carbonyl]-1-methyl-piperazin-2-one], the inhibition at 3 µM was 75 to 95%. In the case of Cc1c(-c2ccc(Cl)cc2)c(C(=O)NC2CCOCC2)n(Cc2ccccc2)c1C(F)(F)F [SC-10, 1-Benzyl-3-(4-chlorophenyl)-4-methyl-N-tetrahydro-pyran-4-yl-5-(trifluoromethyl)-1H-pyrrole-2-carboxylic acid amide], the inhibition at 3 µM is reported as 75 to 95%. For Cc1c(-c2ccc(Cl)cc2)c(C(=O)N(C)C2CCOCC2)n(Cc2ccccc2)c1C(F)(F)F [SC-11, 1-Benzyl-3-(4-chlorophenyl)-N,4-dimethyl-N-tetrahydro-pyran-4-yl-5-(trifluoromethyl)-1H-pyrrole-2-carboxylic acid amide], the inhibition at 3 µM was > 95%. For Cc1c(-c2ccc(Cl)cc2)c(C(=O)NC2(CO)CC2)n(Cc2ccccc2)c1C(F)(F)F [SC-16, 1-Benzyl-3-(4-chlorophenyl)-N-[1-(hydroxymethyl)-cyclopropyl]-4-methyl-5-(trifluoromethyl)-1H-pyrrole-2-carboxylic acid amide], the inhibition at 3 µM was 75 to 95%. Cc1c(-c2ccc(Cl)cc2)c(C(=O)N2CCC(O)CC2)n(Cc2ccccc2)c1C(F)(F)F [SC-17, [1-Benzyl-3-(4-chlorophenyl)-4-methyl-5-(trifluoromethyl)-1H-pyrrol-2-yl]-(4-hydroxy-piperidin-1-yl)-methanone] was tested, and the inhibition at 3 µM was > 95%. In the case of Cc1c(-c2ccc(Cl)cc2)c(C(=O)N(C)C)n(Cc2ccccc2)c1C(F)(F)F [SC-18, 1-Benzyl-3-(4-chlorophenyl)-N,N,4-trimethyl-5-(trifluoromethyl)-1H-pyrrole-2-carboxylic acid amide], the inhibition at 3 µM is reported as 75 to 95%. For Cc1c(-c2ccc(Cl)cc2)c(C(=O)N2CC[S+]([O-])CC2)n(Cc2ccccc2)c1C(F)(F)F [SC-19, [1-Benzyl-3-(4-chlorophenyl)-4-methyl-5-(trifluoromethyl)-1H-pyrrol-2-yl]-(1-oxo-[1,4]thiazinan-4-yl)-methanone], the inhibition at 3 µM was > 95%. Cc1c(-c2ccc(Cl)cc2)c(C(=O)N2CCOC(CO)C2)n(Cc2ccccc2)c1C(F)(F)F (stereo not drawn) [SC-20, [1-Benzyl-3-(4-chlorophenyl)-4-methyl-5-(trifluoromethyl)-1H-pyrrol-2-yl]-[2-(hydroxymethyl)-morpholin-4-yl]-methanone] was tested, and the inhibition at 3 µM was 75 to 95%. With Cc1c(-c2ccc(Cl)cc2)c(C(=O)N(C)CC2CCOCC2)n(Cc2ccccc2)c1C(F)(F)F [SC-21, 1-Benzyl-3-(4-chlorophenyl)-N,4-dimethyl-N-(tetrahydro-pyran-4-yl-methyl)-5-(trifluoromethyl)-1H-pyrrole-2-carboxylic acid amide] the inhibition at 3 µM was > 95%. CNC(=O)c1c(-c2ccc(Cl)cc2)c(C)c(C(F)(F)F)n1Cc1ccccc1 [SC-22, 1-Benzyl-3-(4-chlorophenyl)-N,4-dimethyl-5-(trifluoromethyl)-1H-pyrrole-2-carboxylic acid amide] was tested, and the inhibition at 3 µM was 75 to 95%. With Cc1c(-c2ccc(Cl)cc2)c(C(=O)N2CCC(O)C2)n(Cc2ccccc2)c1C(F)(F)F (stereo not drawn) [SC-23, [1-Benzyl-3-(4-chlorophenyl)-4-methyl-5-(trifluoromethyl)-1H-pyrrol-2-yl]-(3-hydroxy-pyrrolidin-1-yl)-methanone] the inhibition at 3 µM was 75 to 95%. In the case of Cc1c(-c2ccc(Cl)cc2)c(C(=O)N(C)CCO)n(Cc2ccccc2)c1C(F)(F)F [SC-24, 1-Benzyl-3-(4-chlorophenyl)-N-(2-hydroxy-ethyl)-N,4-dimethyl-5-(trifluoromethyl)-1H-pyrrole-2-carboxylic acid amide], the inhibition at 3 µM is reported as > 95%. Cc1c(-c2ccc(Cl)cc2)c(C(=O)N2CCOCC2)n(Cc2cccc(Cl)c2)c1C(F)(F)F [SC-25, [3-(4-Chlorophenyl)-1-[(3-chlorophenyl)-methyl]-4-methyl-5-(trifluoromethyl)-1H-pyrrol-2-yl]-morpholin-4-yl-methanone] gave an inhibition at 3 µM of 75 to 95%. With Cc1c(-c2ccc(Cl)cc2)c(C(=O)N2CCS(=O)(=O)CC2)n(Cc2ccccc2)c1C(F)(F)F [SC-26, [1-Benzyl-3-(4-chlorophenyl)-4-methyl-5-(trifluoromethyl)-1H-pyrrol-2-yl]-(1,1-dioxo-[1,4]thiazinan-4-yl)-methanone] the inhibition at 3 µM was 75 to 95%. With Cc1c(-c2ccc(Cl)cc2)c(C(=O)N2CCNC(C)(C)C2)n(Cc2ccccc2)c1C(F)(F)F [SC-29, [1-Benzyl-3-(4-chlorophenyl)-4-methyl-5-(trifluoromethyl)-1H-pyrrol-2-yl]-(3,3-dimethyl-piperazin-1-yl)-methanone] the inhibition at 3 µM was > 95%. With COc1cccc(-n2c(C(=O)N3CC(F)(F)C3)c(-c3ccc(Cl)cc3)c(C)c2C(F)(F)F)c1 [SC-32, [3-(4-Chlorophenyl)-1-(3-methoxyphenyl)-4-methyl-5-(trifluoromethyl)-1H-pyrrol-2-yl]-(3,3-difluoro-azetidin-1-yl)-methanone] the inhibition at 3 µM was 75 to 95%. Cc1c(-c2ccc(Cl)cc2)c(C(=O)N2CC(F)(F)C2)n(-c2cccc(Cl)c2)c1C(F)(F)F [SC-33, [1-(3-Chlorophenyl)-3-(4-chlorophenyl)-4-methyl-5-(trifluoromethyl)-1H-pyrrol-2-yl]-(3,3-difluoro-azetidin-1-yl)-methanone] showed an inhibition at 3 µM of 75 to 95%. In the case of Cc1c(-c2ccc(Cl)cc2)c(C(=O)N(C)C2CC2)n(Cc2ccccc2)c1C(F)(F)F [SC-34, 1-Benzyl-3-(4-chlorophenyl)-N-cyclopropyl-N,4-dimethyl-5-(trifluoromethyl)-1H-pyrrole-2-carboxylic acid amide], the inhibition at 3 µM is reported as > 95%. Molecule Cc1c(-c2ccc(Cl)cc2)c(C(=O)NC2CC2)n(Cc2ccccc2)c1C(F)(F)F [SC-35, 1-Benzyl-3-(4-chlorophenyl)-N-cyclopropyl-4-methyl-5-(trifluoromethyl)-1H-pyrrole-2-carboxylic acid amide] has an inhibition at 3 µM of 75 to 95%. COC1(CNC(=O)c2c(-c3ccc(Cl)cc3)c(C)c(C(F)(F)F)n2Cc2ccccc2)CC1 [SC-36, 1-Benzyl-3-(4-chlorophenyl)-N-[(1-methoxy-cyclopropyl)-methyl]-4-methyl-5-(trifluoromethyl)-1H-pyrrole-2-carboxylic acid amide] was tested, and the inhibition at 3 µM was > 95%.
